Target: GPR35 (Homo sapiens, UniProt Q9HC97)
Experiment: PathHunter β-Arrestin assay, activation of GPR35 expressed in cultured cells (DiscoverX)
Type: cell-based
Details: for activation of GPR35: Example 2, HMO screening, highest concentration tested 10 mM; for EC50: dose-response by 3× dilutions from 10 mM, duplicate, β-arrestin recruitment
Experimental: Six human milk oligosaccharides (LNnT, LNT, 2′FL, diFL, 6′SL and 3′SL) were screened for their ability to activate the GPR35 receptor in an in vitro assay. The screening was conducted by DiscoverX (Fremont, Ca, USA) using the PathHunter β-Arresin assay. This assay monitors the activation of GPR35 expressed in cultured cells, using Enzyme Fragment Complementation with β-galactosidase (β-Gal) as the functional reporter. […] EA is fused to β-Arrestin and PK is fused to GPR35. When the GPR35 is activated and β-Arrestin is recruited to the receptor, PK and EA complementation occurs, restoring β-Gal activity, which is measured using chemiluminescent Detection Reagents.
The GPR35 cell line was expanded from frozen stocks and cultured according to standard procedures. Cells were seeded in a total volume of 20 μL into white walled, 384-well microplates and incubated at 37° C. for the appropriate time prior to testing. All testing was done in duplicate.
HMO samples were shipped to DiscoverX as concentrated stocks in Phosphate Buffered saline. On the test day, a 5× compound working intermediate was prepared in PBS. An amount of 5 μL of 5× sample was added to cells and incubated at room temperature for 3 to 5 hours.
Assay signal was generated through a single addition of 12.5 μL (50% v/v) of PathHunter Detection reagent cocktail, followed by one-hour incubation at room temperature. Microplates were read following signal generation with a PerkinElmer Envision™ instrument for chemiluminescent signal detection.
Zaprinast (which is known to be an activator of GPR35) was used as positive control.
Percentage activity was calculated using the following formula: % Activity=100%×(mean RLU of test sample−mean RLU of vehicle control)/(mean MAX control ligand−mean RLU of vehicle control).
Dose-responses were generated by iterative 3× dilutions of the highest concentration tested (10 mM).
The samples were diluted in 1×PBS (pH˜7) at 5× concentrations and sent to DiscoverX. The GPR35 activation assay was performed as described in Example 2.

Sequence of GPR35 (Q9HC97 whole entry): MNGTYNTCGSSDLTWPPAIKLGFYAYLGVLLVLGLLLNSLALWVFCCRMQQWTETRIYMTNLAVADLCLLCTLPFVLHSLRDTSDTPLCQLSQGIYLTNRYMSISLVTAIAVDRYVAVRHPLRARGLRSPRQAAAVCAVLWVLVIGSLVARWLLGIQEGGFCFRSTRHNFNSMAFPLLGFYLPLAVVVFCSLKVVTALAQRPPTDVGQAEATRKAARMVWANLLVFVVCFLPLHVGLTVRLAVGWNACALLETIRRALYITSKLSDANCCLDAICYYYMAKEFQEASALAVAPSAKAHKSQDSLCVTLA

Row | Compound | activation of GPR35 | EC50 [mM]
1 | CC(=O)N[C@H]1[C@H](O[C@H]2[C@@H](O)[C@@H](CO)O[C@@H](O[C@H]3[C@H](O)[C@@H](O)C(O)O[C@@H]3CO)[C@@H]2O)O[C@H](CO)[C@@H](O[C@@H]2O[C@H](CO)[C@H](O)[C@H](O)[C@H]2O)[C@@H]1O (mixture of isomers) [LNnT, lacto-N-neotetraose] | No activation | 
2 | CC(=O)N[C@H]1[C@H]([C@H](O)[C@H](O)CO)O[C@@](O[C@H]2[C@@H](O)[C@@H](CO)O[C@@H](O[C@H]3[C@H](O)[C@@H](O)C(O)O[C@@H]3CO)[C@@H]2O)(C(=O)O)C[C@@H]1O (some centres unmarked) [3′SL, 3′ sialyllactose] | No activation | 
3 | CC(=O)N[C@H]1[C@H]([C@H](O)[C@H](O)CO)O[C@@](OC[C@H]2O[C@@H](O[C@H]3[C@H](O)[C@@H](O)[C@H](O)O[C@@H]3CO)[C@H](O)[C@@H](O)[C@H]2O)(C(=O)O)C[C@@H]1O [6′SL, 6′-sialyllactose] |  | 6.5
4 | CC(=O)N[C@H]1[C@H](O[C@H]2[C@@H](O)[C@@H](CO)O[C@@H](O[C@H]3[C@H](O)[C@@H](O)C(O)O[C@@H]3CO)[C@@H]2O)O[C@H](CO)[C@@H](O)[C@@H]1O[C@@H]1O[C@H](CO)[C@H](O)[C@H](O)[C@H]1O (some centres unmarked) [LNT, lacto-N-tetraose] |  | 4.5
5 | C[C@@H]1O[C@@H](O[C@H]2[C@H](O[C@H]3[C@H](O[C@@H]4O[C@@H](C)[C@@H](O)[C@@H](O)[C@@H]4O)[C@@H](O)C(O)O[C@@H]3CO)O[C@H](CO)[C@H](O)[C@@H]2O)[C@@H](O)[C@H](O)[C@@H]1O (some centres unmarked) [diFL, difucosyllactose] | No activation | 

Reference: patent US12167742B2, “Nutritional composition comprising 6′SL and LNT in combination to improve the gastrointestinal barrier function” (SOCIETE DES PRODUITS NESTLE S.A., priority 2018, dated 2024)
